Legend:
mini-pig dorsal wounds = assay: Wound repair in the mini-pig, topical treatment; assay type: in vivo; set-up: key to d) Histological evaluation of biopsies after 4 weeks / e) Histological evaluation of biopsies after 6 weeks: collagen organisation 1-3; 3 = best healing, 1 = parallel bundles; settings: for a) Evaluation of wound quality after 4 weeks: 2.5 mL twice a day, 5 excellent; for a) Evaluation of wound quality after 4 weeks / b) Evaluation of wound quality after 6 weeks: 5-point scale; for d) Histological evaluation of biopsies after 4 weeks / e) Histological evaluation of biopsies after 6 weeks: collagen organisation, 3-point scale; for c) Histopathological evaluation after 6 weeks: scale of 1 to 3, 3 optimum healing
Excerpt: The mini-pig (an animal weighing 25-28 Kg), a model whose validity for wound-repair studies is widely recognised, was used as experimental model to evaluate the ability of chondroitin to accelerate the repair process of damaged skin tissue. Operating under general anaesthetic from the back of the animals, the hair was shaved and the shaven area was washed thoroughly with a 10% solution of iodine-polyvinylpyrrolidone complex and then with isopropyl alcohol. 12 elliptical wounds, six on each side, 20 mm long and 6 mm wide, were made on the shaven, disinfected backs of the animals. The wounds penetrated as far as the subcutaneous fat, about 4 cm from the median line of the back, with the longer side of the wound parallel to the spinal line. The incisions were then sewn with two stitches to close the dermal plane. The superficial stitches were removed after about 7 days. The wounds were covered with a non-adhesive dressing secured with sticking plaster, and the body of the animals was protected with an elastic bandage. Eight animals were selected and divided into two groups of 4, treated topically with chondroitin (first group) or chondroitin sulphate (second group), as described in the protocol shown in Table 11. Starting from the head of the animal, the first two wounds on both sides were treated with the carrier alone, consisting of 2.5 mL of saline, the second two on both sides were treated with 2.5 mL of a 30 mg/mL solution of chondroitin in saline (first group) or with 2.5 mL of a 30 mg/mL solution of chondroitin sulphate in saline (second group), and the third two on both sides were treated with 2.5 mL of a 60 mg/mL solution of chondroitin in saline (first group) or 2.5 mL of a 60 mg/mL solution of chondroitin sulphate in saline (second group). The treatment was performed by slowly dripping the solution into the wound twice a day and dabbing with a gauze dressing, which was then used to cover the wound so that the active ingredient remained in situ for longer. The study continued for 6 weeks, after which the animals were euthanized. A biopsy of about 4 mm was taken after 4 weeks, while the entire areas of the 12 dorsal wounds were removed from the euthanized animals for histological tests. The following evaluations were performed on the treated animals:
a) an evaluation after 4 and 6 weeks by 4 dermatologists who independently assessed the quality of the wound (colour, texture, edges, distortion) and the appearance of the surrounding tissue on a 5-point scale;
b) a pathological evaluation on a scale of 1 to 3 conducted by two veterinary surgeons on the tissue removed after the animals were euthanized, to evaluate the presence of abnormal histopathological situations (quantity of granulation tissue and inflammatory response, with a score from 3 for optimum healing to 1 for ongoing inflammatory symptoms and abundant granulation tissue);
c) a histological analysis of the 4-week biopsies and the tissue removed after the animals were euthanized, conducted by two histologists operating independently, who evaluated the organisation of the collagen on a 3-point scale. An organisation of the collagen fibres similar to the normal model, but smaller than normal dermis (the best healing), scored 3 points, an intermediate arrangement of the fibre weave scored 2 points, and several fibres arranged in parallel bundles or on a plane scored 1 point.

Aggrecan = assay: Real-Time PCR gene expression in human chondrocytes: aggrecan; assay type: cell-based; settings: 1% w/v, ratio to untreated control
Description: (§1) To evaluate the biological effects of chondroitin on human chondrocyte cultures, the expression of a set of genes considered key to establishing the phenotype, and suitable markers for evaluating the quality of the tissue generated, was determined. The study was conducted on chondrocytes prepared from human cartilage, as reported in Example 2, the cells being grown in the presence of chondroitin or chondroitin sulphate. Using a standard procedure, 5*10^4 cells per well were seeded in a 24-well multiwell plate. The chondrocytes were grown in DMEM containing 1% w/v of chondroitin or chondroitin sulphate (endotoxin content ≤0.1 EU/mg). The cells were stimulated for 4, 7 and 10 days (Ishak et al., International J. of Pediatric Otorhinolaryngology, 2011, 75: 835-840), after which the RNA was extracted with Trizol Reagent, as described in the kit manual (Life Technologies Ltd, Milan, Italy). A qualitative morphological analysis of the cell culture was also conducted at the various times, in parallel with RNA extraction, by observing the corresponding samples at 4, 7 and 10 days under the optical microscope. The cells seeded at the three different times were observed under the microscope, and the images that best represented the cell growth conditions were acquired using a time-lapse videomicroscopy workstation. After RNA extraction, reverse transcription was performed with a total of 1 μg RNA and then with amplification by Real-Time PCR of genes which are specific markers for chondrocytes (Table 3).
(§2) Genes connected with matrix production, such as aggrecan, type I collagen, type II collagen and the Sox9 gene, the expression of which is closely correlated with the expression of type II collagen, were analysed as specific markers for differentiation and characterisation of chondrocytes. (Akiyama H., Mod Rheumatol., 2008, 18(3): 213-9; Yang et al., J. of Orthopaedic Res. 2011).
(§3) The gene expression of said markers on human chondrocytes cultured in basic medium (control) and with chondroitin treatment (C) or chondroitin sulphate treatment (CS) was analysed on cell cultures in the second and third growth phases.
(§4) The results of the gene expression analysis were reported as the average of at least 3 independent experiments for tests conducted in the presence of C or CS, on cells in phases 2 and 3.

Collagen Type I = assay: Real-Time PCR gene expression in human chondrocytes: type I collagen; assay type: cell-based; settings: for Fold Expression, Collagen Type I: 1% w/v, ratio to untreated control
Description: as §1, §2, §3, §4

Substance | a) Evaluation of wound quality after 4 weeks (mini-pig dorsal wounds; 30 mg/mL) | b) Evaluation of wound quality after 6 weeks (mini-pig dorsal wounds; 30 mg/mL) | d) Histological evaluation of biopsies after 4 weeks (mini-pig dorsal wounds; 30 mg/mL) | e) Histological evaluation of biopsies after 6 weeks (mini-pig dorsal wounds; 30 mg/mL) | c) Histopathological evaluation after 6 weeks (mini-pig dorsal wounds; 30 mg/mL) | a) Evaluation of wound quality after 4 weeks (mini-pig dorsal wounds; 60 mg/mL) | b) Evaluation of wound quality after 6 weeks (mini-pig dorsal wounds; 60 mg/mL) | d) Histological evaluation of biopsies after 4 weeks (mini-pig dorsal wounds; 60 mg/mL) | e) Histological evaluation of biopsies after 6 weeks (mini-pig dorsal wounds; 60 mg/mL) | c) Histopathological evaluation after 6 weeks (mini-pig dorsal wounds; 60 mg/mL) | Fold Expression, Aggrecan (Aggrecan; phase II, 4 g) | Fold Expression, Aggrecan (Aggrecan; phase II, 7 g) | Fold Expression, Aggrecan (Aggrecan; phase II, 10 g) | Fold Expression, Aggrecan (Aggrecan; phase III, 4 g) | Fold Expression, Aggrecan (Aggrecan; phase III, 7 g) | Fold Expression, Aggrecan (Aggrecan; phase III, 10 g) | Fold Expression, Collagen Type I (Collagen Type I; phase II, 4 g) | Fold Expression, Collagen Type I (Collagen Type I; phase II, 7 g) | Fold Expression, Collagen Type I (Collagen Type I; phase II, 10 g) | Fold Expression, Collagen Type I (Collagen Type I; phase III, 4 g) | further results
chondroitin | 3.8 ± 0.4 | 4.5 ± 0.3 | 2.3 ± 0.2 | 2.7 ± 0.1 | 2.3 ± 0.1 | 4.1 ± 0.3 | 4.9 ± 0.1 | 2.7 ± 0.1 | 3.0 ± 0.2 | 3.0 ± 0.2 | 0.08 ± 0.02 | 1.66±0.22 | 1.07 ± 0.15 | 0.16 ± 0.08 | 0.79 ± 0.2 | 2.3 ± 1.0 | 1.23 ± 0.29 | 1.03 ± 0.52 | 0.67 ± 0.20 | 0.24 ± 0.01 | Fold Expression, Collagen Type I (Collagen Type I; phase III, 7 g): 0.85 ± 0.49; Fold Expression, Collagen Type I (Collagen Type I; phase III, 10 g): 0.59 ± 0.13; reduction in expression of type I collagen (Collagen Type I; growth phase 2, long incubation times, versus control): 30%
chondroitin sulphate [CS, reference compound] | 2.6 ± 0.2 | 3.4 ± 0.3 | 1.3 ± 0.1 | 1.7 ± 0.2 | 1.7 ± 0.2 | 2.9 ± 0.2 | 3.7 ± 0.3 | 1.3 ± 0.1 | 1.7 ± 0.1 | 2.3 ± 0.2 | 1.28 ± 0.75 | 0.72 ± 0.27 | 0.45 ± 0.19 | 0.17 ± 0.10 | 0.87 ± 0.20 | 0.59 ± 0.13 | 1.20 ± 0.56 | 1.44 ± 0.08 | 1.36 ± 0.05 | 0.34 ± 0.01 | Fold Expression, Collagen Type I (Collagen Type I; phase III, 7 g): 2.42 ± 0.88; Fold Expression, Collagen Type I (Collagen Type I; phase III, 10 g): 1.09 ± 0.45

Source: US10206944B2, “Chondroitin for use in medicine” (ALTERGON S.A., priority 2012, dated 2019)
